PubChem BioAssay AID248 (DTP/NCI, 2004)
Where “and” joins values, the source holds several entries; their conditions need not be identical. Equal values may be shown once. Toxic doses and inconclusive results are not listed. Cut-off read from the data, not from the text of the source: active = T/C of 150% or more; inactive = T/C below 125%.

Tested on: L1210 leukemia ip in BDF1 mice, survival T/C
Assay: NCI In Vivo Anticancer Drug Screen. Data for tumor model L1210 Leukemia (intraperitoneal) in B6D2F1 (BDF1) mice
Conditions: endpoint: mean survival time, higher = longer survival
Summary of the method: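 Read-out is survival time, reported as the treated-group measurement over the vehicle-control measurement.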

[1] = dose: 100.0 mg/kg/injection, schedule: Q04DX003 (ip), vehicle: other
[2] = dose: 200.0 mg/kg/injection, schedule: Q04DX003 (ip), vehicle: other
[3] = dose: 400.0 mg/kg/injection, schedule: Q04DX003 (ip), vehicle: other
[4] = dose: 50.0 mg/kg/injection, schedule: Q01DX009 (ip), vehicle: saline
[5] = dose: 100.0 mg/kg/injection, schedule: Q01DX001 (ip), vehicle: saline
[6] = dose: 100.0 mg/kg/injection, schedule: Q01DX009 (ip), vehicle: saline
[7] = dose: 100.0 mg/kg/injection, schedule: Q04DX003 (ip), vehicle: saline
[8] = dose: 200.0 mg/kg/injection, schedule: Q01DX001 (ip), vehicle: saline
[9] = dose: 200.0 mg/kg/injection, schedule: Q01DX009 (ip), vehicle: saline
[10] = dose: 200.0 mg/kg/injection, schedule: Q04DX003 (ip), vehicle: saline
[11] = dose: 400.0 mg/kg/injection, schedule: Q01DX001 (ip), vehicle: saline
[12] = dose: 100.0 mg/kg/injection, schedule: Q04DX002 (ip), vehicle: saline with Tween-80
[13] = dose: 100.0 mg/kg/injection, schedule: Q04DX003 (ip), vehicle: saline with Tween-80
[14] = dose: 200.0 mg/kg/injection, schedule: Q04DX003 (ip), vehicle: saline with Tween-80
[15] = dose: 400.0 mg/kg/injection, schedule: Q04DX003 (ip), vehicle: saline with Tween-80

Measured: T/C

C/C(=C\Cn1ccccc1=O)CCC(=O)O
inactive: dose: 100.0 mg/kg/injection, schedule: Q01DX009 (ip), vehicle: water 100 % of control | [1] 94 % of control | dose: 200.0 mg/kg/injection, schedule: Q01DX009 (ip), vehicle: water 97 % of control | [2] 98 % of control | dose: 400.0 mg/kg/injection, schedule: Q01DX009 (ip), vehicle: water 96 % of control | [3] 89 % of control

CCCCCCCCCCCCCCCCCC1=NC(C)CC(C)(C)O1 (stereo unspecified)
inactive: [4] 93 % of control | [5] 89 % of control | [6] 94 % of control | [7] 86 % of control | [8] 95 % of control | [9] 96 % of control | [10] 94 % of control | [11] 91 % of control

Cc1ccc(S(=O)(=O)Nc2ccc(-c3ccc(NS(=O)(=O)c4ccc(C)cc4)cc3)cc2)cc1
inactive: dose: 50.0 mg/kg/injection, schedule: Q04DX002 (ip), vehicle: saline with Tween-80 89 % of control | [12] 95 % of control

CCC1(CC)C2=CCC3C(CCC4(C)C(C(C)CCCC(C)C)CCC34)C2(C)CCC1OC(C)=O (stereo unspecified)
inactive: dose: 50.0 mg/kg/injection, schedule: Q01DX009 (sc), vehicle: steriod suspending solution 90 % of control | dose: 100.0 mg/kg/injection, schedule: Q01DX009 (sc), vehicle: steriod suspending solution 87 % of control | dose: 100.0 mg/kg/injection, schedule: Q04DX003 (sc), vehicle: steriod suspending solution 107 % of control | dose: 200.0 mg/kg/injection, schedule: Q01DX009 (sc), vehicle: steriod suspending solution 100 % of control | dose: 200.0 mg/kg/injection, schedule: Q04DX003 (sc), vehicle: steriod suspending solution 86 % of control | dose: 400.0 mg/kg/injection, schedule: Q04DX003 (sc), vehicle: steriod suspending solution 96 % of control

O=P(O)(O)Cc1cccc2ccccc12
inactive: dose: 100.0 mg/kg/injection, schedule: Q04DX003 (ip), vehicle: Klucel (hydroxypropylcellulose) (HPC) 92 % of control | [13] 96 % of control | dose: 200.0 mg/kg/injection, schedule: Q04DX003 (ip), vehicle: Klucel (hydroxypropylcellulose) (HPC) 89 % of control | [14] 96 % of control | [15] 96 % of control

Clc1ccc(SCN(CSc2ccc(Cl)cc2)Cc2ccccc2)cc1
inactive: [5] 91 % of control | [8] 90 % of control

CN(C)C1CCC(/C=C(\C#N)C2CCC([N+](=O)[O-])CC2)CC1 (stereo unspecified)
inactive: dose: 25.0 mg/kg/injection, schedule: Q04DX002 (ip), vehicle: Klucel (hydroxypropylcellulose) (HPC) 109 % of control | dose: 50.0 mg/kg/injection, schedule: Q01DX009 (ip), vehicle: Klucel (hydroxypropylcellulose) (HPC) 106 % of control | dose: 50.0 mg/kg/injection, schedule: Q04DX002 (ip), vehicle: Klucel (hydroxypropylcellulose) (HPC) 95 % of control | dose: 100.0 mg/kg/injection, schedule: Q01DX009 (ip), vehicle: Klucel (hydroxypropylcellulose) (HPC) 106 % of control | dose: 100.0 mg/kg/injection, schedule: Q04DX002 (ip), vehicle: Klucel (hydroxypropylcellulose) (HPC) 95 % of control | dose: 200.0 mg/kg/injection, schedule: Q01DX009 (ip), vehicle: Klucel (hydroxypropylcellulose) (HPC) 102 % of control | dose: 200.0 mg/kg/injection, schedule: Q04DX002 (ip), vehicle: Klucel (hydroxypropylcellulose) (HPC) 95 % of control and 100 % of control | dose: 400.0 mg/kg/injection, schedule: Q04DX002 (ip), vehicle: Klucel (hydroxypropylcellulose) (HPC) 103 % of control

CC(=O)Nc1cccc(OCCOc2ccc([N+](=O)[O-])cc2)c1
inactive: dose: 100.0 mg/kg/injection, schedule: Q01DX001 (ip), vehicle: carboxymethylcellulose (CMC) 92 % of control | dose: 200.0 mg/kg/injection, schedule: Q01DX001 (ip), vehicle: carboxymethylcellulose (CMC) 92 % of control | dose: 400.0 mg/kg/injection, schedule: Q01DX001 (ip), vehicle: carboxymethylcellulose (CMC) 90 % of control

Cc1c(N)nc(N)nc1C(=O)O
inactive: dose: 25.0 mg/kg/injection, schedule: Q01DX001 (ip), vehicle: Klucel (hydroxypropylcellulose) (HPC) 108 % of control | dose: 50.0 mg/kg/injection, schedule: Q01DX001 (ip), vehicle: Klucel (hydroxypropylcellulose) (HPC) 93 % of control | dose: 100.0 mg/kg/injection, schedule: Q01DX001 (ip), vehicle: Klucel (hydroxypropylcellulose) (HPC) 105 % of control

CCC12CC(Br)C(C1)OC2=O (stereo unspecified)
inactive: [1] 100 % of control | [2] 95 % of control | [3] 94 % of control

CC(C)COC(=O)c1cc(O)c(O)c(O)c1
inactive: dose: 100.0 mg/kg/injection, schedule: Q01DX009 (ip), vehicle: saline with Tween-80 100 % of control | [13] 97 % of control | dose: 200.0 mg/kg/injection, schedule: Q01DX009 (ip), vehicle: saline with Tween-80 107 % of control | [14] 105 % of control | dose: 400.0 mg/kg/injection, schedule: Q01DX009 (ip), vehicle: saline with Tween-80 107 % of control | [15] 95 % of control

CCC[N+]1(C)CCOCC1
inactive: dose: 75.0 mg/kg/injection, schedule: Q01DX001 (ip), vehicle: saline 94 % of control and 89 % of control

CC(C)(C)c1cc(NS(=O)(=O)c2ccccc2)c(N=[N+]=[N-])c(Cl)c1NS(=O)(=O)c1ccccc1
inactive: [12] 102 % of control | dose: 200.0 mg/kg/injection, schedule: Q04DX002 (ip), vehicle: saline with Tween-80 91 % of control | dose: 400.0 mg/kg/injection, schedule: Q04DX002 (ip), vehicle: saline with Tween-80 102 % of control

CCCCC(=O)N/N=C/c1ccc(Cl)c([N+](=O)[O-])c1
inactive: [5] 91 % of control | [8] 89 % of control | [11] 91 % of control

CC(Cl)CO (stereo unspecified)
inactive: dose: 75.0 mg/kg/injection, schedule: Q01DX001 (ip), vehicle: carboxymethylcellulose (CMC) 108 % of control | dose: 150.0 mg/kg/injection, schedule: Q01DX001 (ip), vehicle: carboxymethylcellulose (CMC) 97 % of control | dose: 300.0 mg/kg/injection, schedule: Q01DX001 (ip), vehicle: carboxymethylcellulose (CMC) 97 % of control

COC(OC)OC
inactive: [6] 104 % of control | [7] 100 % of control | [9] 101 % of control | [10] 105 % of control | dose: 400.0 mg/kg/injection, schedule: Q01DX009 (ip), vehicle: saline 100 % of control | dose: 400.0 mg/kg/injection, schedule: Q04DX003 (ip), vehicle: saline 105 % of control

CCCCCCCCCC(=O)Oc1nncc(=O)[nH]1
inactive: [4] 87 % of control | [6] 97 % of control | [9] 104 % of control
